Laboratory results: US12071421B2, “Process for the synthesis of substituted chloromethyl dialkylphosphates” (HELSINN HEALTHCARE SA, priority 2011, dated 2024)
In brackets after ≈: the same amount, converted by molar mass. Each block holds one molecule with its values, some of them ahead of it.

Experiments:
[1] = Aqueous solubility (neutral pH); type: physicochemical; settings: for solubility: aqueous medium
[2] = Chemical stability according to ICH guidelines under accelerated conditions (40° C.); type: physicochemical
Description: Stability was tested according to ICH guidelines under accelerated conditions (40° C.).

[3] = Stability studies of GA1 parent acid species and its salts (degradation on storage)
Description: Their synthesis employed either a) neutralization of the dried diacid phosphate species and its corresponding base salts or b) a direct acid deprotection starting from the dried di(tert-butyl)-protected phosphate species. Neutralization was performed with L-histidine, magnesium salt, N-methyl-D-glucamine (dimeglumine), and L-lysine. Both procedures were tried in the synthesis of citric derivatives whereas with other acids the direct deprotection reaction was used. The figures below show the most relevant structures.
Alphabetical letters are used to denote data points on the graph that correspond to degradation percentage values over time for respective salts of the same parent compound as just described above and in Table 2 below.

[4] = Dog PKs study / comparative bioequivalence (IV vs oral netupitant); type: in vivo, Beagle dogs
Description: The pharmacokinetics (PKs) study of three compounds (e.g., compound nos. 1-3 of the above Table 3), as compared to a reference compound—netupitant (orally administered), on rat and dog was conducted.
Dog PKs Study: the dogs tested in the study were Beagle dogs, body weight 8-10 kg, and 3 male dogs per group. The four PK experiments were performed in 12 naïve dogs. The dose was 3 mg/kg administered via intravenous (IV) slow injection into the left and right cephalic or left and right saphenous veins used in rotation. […] The dose was administered to each animal on the basis of the most recently recorded body weight and the volume administered was recorded for each animal. Netupitant 3 mg/kg dose was tested at 2 ml/kg in vehicle (DMSO:Ethanol:Tween80 solution=[…], v/v), dependence on its solubility. Dose was freshly prepared before each single PK experiment. Before administration, dogs were fasted 12 hr, water ad libitum. After 480 min time point blood was collected, dogs were fed. 0.5 ml blood was collected in heparinised tubes at pre-dose and at 2, 5, 15, 30 min, 1, 2, 4, 6, 8, 12, 24, 36, 48 and 72 hr after intravenous administration. […] Prepared quantification standard curve at 2, 10, 40, 100, 200, 1000 and 2000 ng/ml (diluted from methanol stock with methanol containing 1% formic acid). […] Dog plasma samples were analyzed by using an API4000 MS coupled with HPLC. […]

Structure (SMILES): Cc1ccccc1-c1cc([N+]2([O-])CCN(C)CC2)ncc1N(C)C(=O)C(C)(C)c1cc(C(F)(F)F)cc(C(F)(F)F)c1 [Compound 5, reference compound]
- solubility ([1]; pH 7): ~1000 µg/mL (≈ 1680 µM)
- Chemical Stability [2]: medium

Structure (SMILES): Cc1ccccc1-c1cc(N2CC[N+](C)(COP(=O)([O-])O)CC2)ncc1N(C)C(=O)C(C)(C)c1cc(C(F)(F)F)cc(C(F)(F)F)c1 [parent acid species]
- Degradation ([3]; 1 week): over 8
- Degradation ([3]; 6 months): over 65%
- total degradation ([3]; 6 months): 7.0300

Structure (SMILES): Cc1ccccc1-c1cc(N2CC[N+](C)(COP(=O)(O)O)CC2)ncc1N(C)C(=O)C(C)(C)c1cc(C(F)(F)F)cc(C(F)(F)F)c1 [Compound 1]
- solubility ([1]; pH 7): 10000 to 15000 µg/mL
- Chemical Stability [2]: medium
- bioequivalence to oral netupitant at the same dose ([4]; IV): bioequivalent

Structure (SMILES): Cc1ccccc1-c1cc([N+]2([O-])CCN(C)CC2)[n+]([O-])cc1N(C)C(=O)C(C)(C)c1cc(C(F)(F)F)cc(C(F)(F)F)c1 [Compound 6]
- Chemical Stability [2]: low

Structure (SMILES): Cc1ccccc1-c1cc(N2CC[N+](C)(COP(=O)(O)O)CC2)ncc1N(C)C(=O)C(C)(C)c1cc(C(F)(F)F)cc(C(F)(F)F)c1.Cl.[Cl-] [chloride hydrochloride HCl salt of GA1, 4-(5-(2-(3,5-bis(trifluoromethyl)phenyl)-N,2-dimethylpropanamido)-4-(o-tolyl)pyridin-2-yl)-1-methyl-1-((phosphonooxy)methyl)piperazin-1-ium chloride hydrochloride]
- resistance to decoupling of the oxo-phosphonomethyl and reversion of the active moiety to its parent state [3]: tremendously resistant

Structure (SMILES): Cc1ccccc1-c1cc(N2CCN(C)CC2)[n+]([O-])cc1N(C)C(=O)C(C)(C)c1cc(C(F)(F)F)cc(C(F)(F)F)c1 [Compound 4]
- solubility ([1]; pH 7): ~600 µg/mL (≈ 1010 µM)
- Chemical Stability [2]: medium

Structure (SMILES): Cc1ccccc1-c1cc(N2CCN(C)CC2)ncc1N(C)C(=O)C(C)(C)c1cc(C(F)(F)F)cc(C(F)(F)F)c1 [Compound 9, 2-(3,5-bis(trifluoromethyl)phenyl)-N,2-dimethyl-N-(6-(4-methylpiperazin-1-yl)-4-(o-tolyl)pyridin-3-yl)propanamide, reference compound]
- solubility ([1]; pH 7, unit inferred): 250 µg/mL (≈ 432 µM)
- AUC(0-t) ([4]; male, beagle, plasma, PO, 3 mg/kg, read-out: Mean AUC0-t (converted)): 5120 ng·h/mL

Second part, the molecule after the results:

- Solubility (neutral pH) [1]: insoluble
- Chemical Stability [2]: low
Structure (SMILES): CC(=O)OC[N+]1(C)CCN(c2cc(-c3ccccc3C)c(N(C)C(=O)C(C)(C)c3cc(C(F)(F)F)cc(C(F)(F)F)c3)cn2)CC1 [Compound 7]

- Degradation ([3]; 12 days): +1.80% in 12 days (in argon)
- Degradation ([3]; 14 days): +1.95% in 14 days (in air)
Structure (SMILES): Cc1ccccc1-c1cc(N2CC[N+](C)(COP(=O)([O-])O)CC2)ncc1N(C)C(=O)C(C)(C)c1cc(C(F)(F)F)cc(C(F)(F)F)c1 [1. NaOH, 3 eq. 2. Fumaric acid, 1 eq.]

- Product stability (comment) [3]: Product degrades rapidly.
Structure (SMILES): Cc1ccccc1-c1cc(N2CC[N+](C)(COP(=O)([O-])O)CC2)ncc1N(C)C(=O)C(C)(C)c1cc(C(F)(F)F)cc(C(F)(F)F)c1 [HBr, 48%, 4 eq.]

- Degradation ([3]; 12 days): +0.48% in 12 days (in argon)
- Degradation ([3]; 14 days): +0.69% in 14 days (in air)
Structure (SMILES): Cc1ccccc1-c1cc(N2CC[N+](C)(COP(=O)([O-])O)CC2)ncc1N(C)C(=O)C(C)(C)c1cc(C(F)(F)F)cc(C(F)(F)F)c1 [L-lysine, 1 eq.]

- Solubility (neutral pH) [1]: insoluble
- Chemical Stability [2]: Low
Structure (SMILES): CCCC(=O)OC[N+]1(C)CCN(c2cc(-c3ccccc3C)c(N(C)C(=O)C(C)(C)c3cc(C(F)(F)F)cc(C(F)(F)F)c3)cn2)CC1 [Compound 8]

- Degradation ([3]; 6 days): +0.87% in 6 days (in air)
- Degradation ([3]; 11 days): +1.52% in 11 days (in argon)
Structure (SMILES): Cc1ccccc1-c1cc(N2CC[N+](C)(COP(=O)([O-])O)CC2)ncc1N(C)C(=O)C(C)(C)c1cc(C(F)(F)F)cc(C(F)(F)F)c1 [N-methyl-D-glucamine (Meglumine), 2 eq.]
